{
  "source": "patent US10472385B2",
  "about": "“Triterpene-glycosides as sweeteners or sweetener enhancers” (priority 2013, dated 2019)",
  "system": "panel of 4 panelists (sweet taste)",
  "experiment": "Organoleptic test of the compounds of formula (I) against sucrose and mogroside V",
  "assay_type": "in vivo",
  "set-up": "key: 3 = sweeter than control, 1 = less sweet than control but still sweet",
  "conditions": "compound 0.4 mg/ml (400 ppm) in non-carbonated mineral water; for Organoleptic evaluation compared to mogroside V*: control solution mogroside V 0.1 mg/ml (100 ppm); for Organoleptic evaluation compared to sucrose*: control solution sucrose 20 mg/ml",
  "experimental": "Organoleptic Test of the Compounds of Formula (I) Against Sucrose and Mogroside V\nThe isolated pure compounds were dissolved in non-carbonated mineral water (“Fonsana Quelle”) in a concentration of 0.4 mg/ml (400 ppm). The sweet taste of each sample was compared by a panel of 4 panelists with a solution of sucrose in a concentration of 20 mg/ml and with a solution of the known sweetener mogroside V (isolated by AnalytiCon from Momordica grosvenori) in a concentration of 0.1 mg/ml (100 ppm).\nThe sweetness was evaluated as follows:\n3=sweeter than the control solution\n1=less sweet than the control solution but still sweet",
  "data": [
    {"smiles": "C[C@H](CC[C@@H](O[C@@H]1O[C@H](CO[C@@H]2O[C@H](CO)[C@@H](O)[C@H](O)[C@H]2O)[C@@H](O)[C@H](O)[C@H]1O[C@@H]1O[C@H](CO)[C@@H](O)[C@H](O)[C@H]1O)C(C)(C)O)[C@H]1CC[C@@]2(C)C3CC=C4[C@@H](CCC(=O)C4(C)C)[C@]3(C)[C@H](O)C[C@]12C", "note": "(stereo partly shown) [Compound Jj]", "values": [
      {"measurement": "Organoleptic evaluation compared to mogroside V*", "value": 2},
      {"measurement": "Organoleptic evaluation compared to sucrose*", "value": 3}
    ]},
    {"smiles": "C[C@H](CC[C@@H](O[C@@H]1O[C@H](CO[C@@H]2O[C@H](CO)[C@@H](O)[C@H](O)[C@H]2O)[C@@H](O)[C@H](O)[C@H]1O[C@@H]1O[C@H](CO)[C@@H](O)[C@H](O)[C@H]1O)C(C)(C)O)[C@H]1CC[C@@]2(C)[C@@H]3CC=C4C(CC[C@H](O[C@@H]5O[C@H](CO)[C@@H](O)[C@H](O)[C@H]5O)C4(C)C)[C@]3(C)CC[C@]12C", "note": "(stereo partly shown) [Compound Ee]", "values": [
      {"measurement": "Organoleptic evaluation compared to mogroside V*", "value": 3},
      {"measurement": "Organoleptic evaluation compared to sucrose*", "value": 3}
    ]},
    {"smiles": "C[C@H](CC[C@@H](O[C@@H]1O[C@H](CO[C@@H]2O[C@H](CO)[C@@H](O)[C@H](O)[C@H]2O)[C@@H](O)[C@H](O)[C@H]1O[C@@H]1O[C@H](CO)[C@@H](O)[C@H](O)[C@H]1O)C(C)(C)O)[C@H]1CC[C@@]2(C)[C@@H]3CC=C4C(CC[C@H](O[C@@H]5O[C@H](CO)[C@@H](O)[C@H](O)[C@H]5O[C@@H]5O[C@H](CO)[C@@H](O)[C@H](O)[C@H]5O)C4(C)C)[C@]3(C)CC[C@]12C", "note": "(stereo partly shown) [Compound Dd]", "values": [
      {"measurement": "Organoleptic evaluation compared to mogroside V*", "value": 3},
      {"measurement": "Organoleptic evaluation compared to sucrose*", "value": 3}
    ]},
    {"smiles": "C[C@H](CCC(=O)C(C)(C)O)[C@H]1CC[C@@]2(C)C3CC=C4[C@@H](CC[C@H](O[C@@H]5O[C@H](CO[C@@H]6O[C@H](CO)[C@@H](O)[C@H](O)[C@H]6O)[C@@H](O)[C@H](O)[C@H]5O)C4(C)C)[C@]3(C)[C@H](O)C[C@]12C", "note": "(stereo partly drawn) [Compound Hh, (6R)-2-hydroxy-6-((3S,9R,10R,11R,13R,14S,17R)-11-hydroxy-4,4,9,13,14-pentamethyl-3-((2R,3R,4S,5S,6R)-3,4,5-trihydroxy-6-(((2R,3R,4S,5S,6R)-3,4,5-trihydroxy-6-(hydroxymethyl)tetrahydro-2H-pyran-2-yloxy)methyl)tetrahydro-2H-pyran-2-yloxy)-2,3,4,7,8,9,10,11,12,13,14,15,16,17-tetradecahydro-1H-cyclopenta[a]phenanthren-17-yl)-2-methylheptan-3-one]", "values": [
      {"measurement": "Organoleptic evaluation compared to mogroside V*", "value": 1},
      {"measurement": "Organoleptic evaluation compared to sucrose*", "value": 2}
    ]},
    {"smiles": "C[C@H](CC[C@@H](O[C@@H]1O[C@H](CO[C@@H]2O[C@H](CO)[C@@H](O)[C@H](O)[C@H]2O)[C@@H](O)[C@H](O)[C@H]1O[C@@H]1O[C@H](CO)[C@@H](O)[C@H](O)[C@H]1O)C(C)(C)O)[C@H]1CC[C@@]2(C)C3CC=C4[C@@H](CC[C@H](O[C@@H]5O[C@H](CO)[C@@H](O)[C@H](O)[C@H]5O)C4(C)C)[C@]3(C)CC[C@]12C", "note": "(stereo partly shown) [Compound Mm]", "values": [
      {"measurement": "Organoleptic evaluation compared to mogroside V*", "value": 3},
      {"measurement": "Organoleptic evaluation compared to sucrose*", "value": 3}
    ]},
    {"smiles": "C[C@H](CC[C@@H](O[C@@H]1O[C@H](CO)[C@@H](O)[C@H](O)[C@H]1O[C@@H]1O[C@H](CO)[C@@H](O)[C@H](O)[C@H]1O)C(C)(C)O)[C@H]1CC[C@@]2(C)C3CC=C4C(CC[C@H](O[C@@H]5O[C@H](CO)[C@@H](O)[C@H](O)[C@H]5O)C4(C)C)[C@]3(C)CC[C@]12C", "note": "(stereo partly shown) [Compound Gg]", "values": [
      {"measurement": "Organoleptic evaluation compared to mogroside V*", "value": 3},
      {"measurement": "Organoleptic evaluation compared to sucrose*", "value": 3}
    ]},
    {"smiles": "C[C@H](CC[C@@H](O[C@@H]1O[C@H](CO[C@@H]2O[C@H](CO)[C@@H](O)[C@H](O)[C@H]2O)[C@@H](O)[C@H](O)[C@H]1O[C@@H]1O[C@H](CO)[C@@H](O)[C@H](O)[C@H]1O)C(C)(C)O)[C@H]1CC[C@@]2(C)C3CC=C4C(CC[C@H](O[C@@H]5O[C@H](CO)[C@@H](O[C@@H]6O[C@H](CO)[C@@H](O)[C@H](O)[C@H]6O)[C@H](O)[C@H]5O)C4(C)C)[C@]3(C)CC[C@]12C", "note": "(stereo partly shown) [Compound Cc]", "values": [
      {"measurement": "Organoleptic evaluation compared to mogroside V*", "value": 3},
      {"measurement": "Organoleptic evaluation compared to sucrose*", "value": 3}
    ]},
    {"smiles": "C[C@H](CC[C@@H](O[C@@H]1O[C@H](CO[C@@H]2O[C@H](CO)[C@@H](O)[C@H](O)[C@H]2O)[C@@H](O)[C@H](O)[C@H]1O[C@@H]1O[C@H](CO)[C@@H](O)[C@H](O)[C@H]1O)C(C)(C)O)[C@H]1CC[C@@]2(C)C3CC=C4[C@@H](CC[C@H](O)C4(C)C)[C@]3(C)CC[C@]12C", "note": "(stereo partly shown) [Compound Kk]", "values": [
      {"measurement": "Organoleptic evaluation compared to mogroside V*", "value": 1},
      {"measurement": "Organoleptic evaluation compared to sucrose*", "value": 2}
    ]},
    {"smiles": "C[C@H](CC[C@@H](O[C@@H]1O[C@H](CO[C@@H]2O[C@H](CO)[C@@H](O)[C@H](O)[C@H]2O)[C@@H](O)[C@H](O)[C@H]1O[C@@H]1O[C@H](CO)[C@@H](O)[C@H](O)[C@H]1O)C(C)(C)O)[C@H]1CC[C@@]2(C)C3CC=C4[C@@H](CC[C@H](O[C@@H]5O[C@H](CO)[C@@H](O)[C@H](O)[C@H]5O)C4(C)C)[C@]3(C)C(=O)C[C@]12C", "note": "(stereo partly shown) [Compound Ll]", "values": [
      {"measurement": "Organoleptic evaluation compared to mogroside V*", "value": 3},
      {"measurement": "Organoleptic evaluation compared to sucrose*", "value": 3}
    ]},
    {"smiles": "C[C@H](CC[C@@H](O[C@@H]1O[C@H](CO)[C@@H](O)[C@H](O)[C@H]1O[C@@H]1O[C@H](CO)[C@@H](O)[C@H](O)[C@H]1O)C(C)(C)O)[C@H]1CC[C@@]2(C)[C@@H]3CC=C4C(CC[C@H](O)C4(C)C)[C@]3(C)[C@H](O)C[C@]12C", "note": "(stereo partly drawn) [Compound Aa, (2S,3R,4S,5S,6R)-2-((2S,3R,4S,5S,6R)-2-((3R,6R)-6-((3S,8S,9R,11R,13R,14S,17R)-3,11-dihydroxy-4,4,9,13,14-pentamethyl-2,3,4,7,8,9,10,11,12,13,14,15,16,17-tetradecahydro-1H-cyclopenta[a]phenanthren-17-yl)-2-hydroxy-2-methylheptan-3-yloxy)-4,5-dihydroxy-6-(hydroxymethyl)tetrahydro-2H-pyran-3-yloxy)-6-(hydroxymethyl)tetrahydro-2H-pyran-3,4,5-triol]", "values": [
      {"measurement": "Organoleptic evaluation compared to mogroside V*", "value": 2},
      {"measurement": "Organoleptic evaluation compared to sucrose*", "value": 3}
    ]},
    {"smiles": "C[C@H](CC[C@@H](O[C@@H]1O[C@H](CO[C@@H]2O[C@H](CO)[C@@H](O)[C@H](O)[C@H]2O)[C@@H](O)[C@H](O)[C@H]1O[C@@H]1O[C@H](CO)[C@@H](O)[C@H](O)[C@H]1O)C(C)(C)O)[C@H]1CC[C@@]2(C)[C@@H]3CC=C4[C@@H](CC[C@H](O[C@@H]5O[C@H](CO)[C@@H](O)[C@H](O)[C@H]5O[C@@H]5O[C@H](CO)[C@@H](O)[C@H](O)[C@H]5O)C4(C)C)[C@]3(C)[C@H](O)C[C@]12C", "note": "[Compound Ff]", "values": [
      {"measurement": "Organoleptic evaluation compared to mogroside V*", "value": 2},
      {"measurement": "Organoleptic evaluation compared to sucrose*", "value": 3}
    ]}
  ]
}
